Reference: patent US20100239501A1, “GENE SENSITIVE TO BONE/JOINT DISEASE AND USE THEREOF” (RIKEN, priority 2007, published 2010)

Experiments:
[1] = tested on: Normal human knee articular cartilage cells (NHAC-kn); assay: Inflammatory cytokine gene expression induction by LPA in human articular cartilage cells; format: cell-based; details: 10 μM LPA, n=4
Experimental: EDG2 is a GPCR having lysophosphatidic acid (LPA) as a ligand thereof. For LPA, four receptors, including EDG2, have been reported (EDG2, EDG4, EDG7 and GPR23). To analyze the tissue distributions of these four LPA receptors, an expression quantitation analysis by quantitative real-time PCR in various human tissues was performed. On 500 ng of total RNA of each of various human tissues (Human Total RNA Master Panel, Clontech), reverse transcription was performed using Multiscribe reverse transcriptase (Applied biosystems) and a random hexamer, whereby a cDNA was obtained. Quantitation of the LPA receptor genes was performed using QuantiTect STBR Green PCR (Qiagen) on the ABI PRISM 7700 sequence detection system (Applied biosystems) as directed in the documentation attached. The number of copies of each gene was calculated using a working curve. […]
The inflammatory cytokine expression induction reaction of LPA, which is a ligand of EDG2, in human articular cartilage cells was analyzed. […] Twelve hours after the medium replacement, the cells were stimulated with 10 μM LPA; 0, 2, 4, 8, 12 and 24 hours later, total RNA was extracted using ISOGEN (Nippon Gene), and the amounts expressed of TNFA and IL1B, which are inflammatory cytokine genes, were quantified by a method in accordance with Example 10. […]

[2] = tested on: rabbit synovial cell line (HIG-82); assay: Inflammatory cytokine and MMP gene expression induction by LPA in rabbit synovial cell line; format: cell-based
Experimental: EDG2 is a GPCR having lysophosphatidic acid (LPA) as a ligand thereof. For LPA, four receptors, including EDG2, have been reported (EDG2, EDG4, EDG7 and GPR23). To analyze the tissue distributions of these four LPA receptors, an expression quantitation analysis by quantitative real-time PCR in various human tissues was performed. On 500 ng of total RNA of each of various human tissues (Human Total RNA Master Panel, Clontech), reverse transcription was performed using Multiscribe reverse transcriptase (Applied biosystems) and a random hexamer, whereby a cDNA was obtained. Quantitation of the LPA receptor genes was performed using QuantiTect STBR Green PCR (Qiagen) on the ABI PRISM 7700 sequence detection system (Applied biosystems) as directed in the documentation attached. The number of copies of each gene was calculated using a working curve. The amount of each gene was standardized by being divided by the number of copies of the G3PDH gene. A Toyobo product was used as the primer for the G3PDH gene. […] In these organs, the amount of the EDG2 gene expressed was about 20 to 100 times as high as other LPA receptor genes; this gene is a dominant LPA receptor (FIG. 2). The EDG2 gene was also found to be expressed at moderate levels in the adrenal, cerebellum, lung, placenta, prostate, testis, thyroid, trachea, and uterus (FIG. 2). In these tissues, EDG2 was not always a dominant LPA receptor.
The inflammatory cytokine expression induction reaction of LPA in a rabbit synovial cell line was analyzed. The method used is described below. A rabbit synovial cell line (HIG-82) was purchased from ATCC. The HIG-82 was cultured using Ham's F-12 medium (Invitrogen) containing 10% fetal bovine serum (FBS) and antibiotics (100 U/ml penicillin G and 100 μg/ml streptomycin). The HIG-82 was seeded to a 24-well plate at a ratio of 1×10^5 cells/well, and cultured until they became confluent. Twelve hours before performing LPA stimulation, the medium was replaced with Ham's F-12 medium containing 0.1% fatty acid free bovine serum albumin (Sigma). In the time-related change analysis, 12 hours after the medium replacement, the cells were stimulated with 10 μM LPA; 0, 2, 4, 8, 12 and 24 hours later, total RNA was extracted using ISOGEN (Nippon Gene), and the amounts expressed of the TNFA and IL1B genes, which are inflammatory cytokine genes, and of the MMP1, MMP3 and MMP13 genes, which are MMP genes, were quantified by a method in accordance with Example 10 (n=4). In the dose dependency test, 12 hours after the medium replacement, the cells were stimulated with 0, 0.1, 1 and 10 μM LPA; 2 hours later, total RNA was extracted using ISOGEN (Nippon Gene), and the amounts expressed of the TNFA and IL1B genes, which are inflammatory cytokine genes, were quantified by the same method as with the time-related change test (n=4). As a result of the time-related change test of inflammatory cytokine genes with LPA stimulation, the amounts expressed of the TNFA and IL1B genes rose transiently, with peaks reached 2 hours later (FIGS. 9a and b). The amounts expressed of the MMP1, MMP3 and MMP13 genes, which are MMP genes, rose transiently, with peaks reached 4, 4 and 8 hours later, respectively. As a result of the dose dependency test, it was shown that LPA raised the expression of inflammatory cytokine genes dose-dependently. The amount expressed of the IL1B gene nearly reached a plateau at 1 μM, whereas the amount expressed of the TNFA gene rose dose-dependently up to 10 μM. The results above are well similar to the results for HFLS-OA shown in Example 17, showing that in HIG-82 cells as well, the expression of inflammatory cytokine genes is induced with LPA stimulation, and the expression of MMPs is induced paracrinely.

## CCCCCCCC/C=C\CCCCCCCC(=O)OC[C@@H](O)COP(=O)(O)O [LPA, 1-Oleoyl-sn-Glycero-3-Phosphate]
[1]; 0-24 hours
  IL1B gene expression: no expression raising reaction was observed
[1]; transiently, 2 hours after addition
  rise in amount expressed of the TNFA gene: about 2 folds
[2]; 0, 0.1, 1 and 10 μM LPA, 2 hours, n=4
  rise of expression of inflammatory cytokine genes (TNFA, IL1B): dose-dependently
[2]; 10 μM LPA, transient rise, n=4
  time of peak of IL1B gene expression: 2 h
  time of peak of MMP1 gene expression: 4 h
  time of peak of MMP3 gene expression: 4 h
  time of peak of MMP13 gene expression: 8 h
  time of peak of TNFA gene expression: 2 h
[2]; dose dependency test, 2 hours
  LPA concentration at which IL1B gene expression nearly reached a plateau: 1 µM
  LPA concentration up to which TNFA gene expression rose dose-dependently: up to 10 μM
